Assay results from patent US20240059703A1 (AMGEN INC., priority 2021, published 2024).
pIC50: −log10 of the molar value.

Tests used:
[1] = system: A549 (human lung carcinoma) cells; assay: Cell Viability Assay (CellTiter-Glo), A549; format: cell-based
In short: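 Luminescent ATP read-out (CellTiter-Glo) after 72 h compound treatment of cells seeded overnight at 1.67E+04 cells/mL in RPMI 1640, 10% FBS; signal relative to DMSO, IC50 by 4-parameter logistic model.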

KRAS G12C = KRAS G12C (Homo sapiens (Human), UniProt P01116, C118A/G12C); assay: 2 h coupled exchange assay; format: biochemical; details: Avg 2 h Coupled exchange IC50, 2 h compound pre-incubation
Method: The term “2 h coupled exchange assay” or “20 h coupled exchange assay” as used herein refers to the assay described in the Section entitled “BIOLOGICAL EVALUATION.”

[2] = system: MIA PaCa-2 (human pancreatic carcinoma) cells; assay: Cell Viability Assay (CellTiter-Glo), MIA PaCa-2; format: cell-based
Method: Serially-diluted compound or DMSO was added to the cells, and plates were incubated at 37° C., 5% CO2 for 72 h. Cell viability was measured using a CellTiter-Glo® Luminescent Cell Viability Assay kit (Promega) according to the manufacturer's protocol. The luminescence signal of treated samples was normalized to DMSO control, and data were analyzed using a 4-parameter logistic model to calculate IC50 values.

[3] = SOS-mediated nucleotide exchange

KRAS G12C, sequence (P01116 other isoform, or with tags, fused parts or gaps G12C/C118A): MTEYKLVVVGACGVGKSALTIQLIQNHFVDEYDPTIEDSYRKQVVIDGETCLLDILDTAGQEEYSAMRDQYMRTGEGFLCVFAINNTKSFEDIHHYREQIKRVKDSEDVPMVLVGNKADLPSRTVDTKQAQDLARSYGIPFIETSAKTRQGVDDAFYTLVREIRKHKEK

Structure (SMILES)	pIC50 ([1]; Homo sapiens, A549, 72 h)	pIC50 (KRAS G12C)	pIC50 ([2]; Homo sapiens, MIA PaCa-2, 72 h)	pIC50 (KRAS G12C; [3])	pIC50 ([1]; 72 h)	pIC50 ([2]; 72 h)
C=CC(=O)N1CC2(CCN(c3nc4cc(-c5cncnc5)ccc4c(-c4ccc(F)cc4F)c3C#N)C2)C1 [Example 20-12, 4-(2,4-difluorophenyl)-2-(2-(2-propenoyl)-2,6-diazaspiro[3.4]octan-6-yl)-7-(5-pyrimidinyl)-3-quinolinecarbonitrile]	< 4.60	6.61	5.69			
C=CC(=O)N1CC2(CCN(c3nc(-c4cc(O)cc5ccccc45)c4ncc(C)cc4n3)C2)C1 [Example 1-22, 1-(6-(4-(3-hydroxy-1-naphthalenyl)-7-methylpyrido[3,2-d]pyrimidin-2-yl)-2,6-diazaspiro[3.4]octan-2-yl)-2-propen-1-one]	< 4.60		5.37	5.94		
C=CC(=O)N1CC2(CCN(c3nc4c(c(-c5c(C)ccc6[nH]ncc56)c3C#N)CC3(CC3)C4)C2)C1 [Example 13-14, 4-(5-methyl-1H-indazol-4-yl)-2-(2-(2-propenoyl)-2,6-diazaspiro[3.4]octan-6-yl)-5,7-dihydrospiro[cyclopenta[b]pyridine-6,1′-cyclopropane]-3-carbonitrile]	< 5.30		6.29	7.47		
C=CC(=O)N1CC2(CCN(c3cc4c(c(-c5c(C(F)(F)F)ccc6[nH]ncc56)c3Cl)OCCC4)C2)C1 [Example 2-103, 1-(6-(7-chloro-8-(5-(trifluoromethyl)-1H-indazol-4-yl)-3,4-dihydro-2H-chromen-6-yl)-2,6-diazaspiro[3.4]octan-2-yl)-2-propen-1-one]	< 5.30		6.93	6.53		
C=CC(=O)N1CC2(CCN(c3nc4c(c(-c5c(C)ccc6[nH]ncc56)c3C#N)[C@@H]3CC[C@H]4C3)C2)C1 (single isomer, unassigned) [Example 14-7]	5.25		8.22	7.85		
C=CC(=O)N1CC2(CCN(c3nc4cc(C5CC5)ccc4c(-c4c(C)ccc5[nH]ncc45)c3C#N)C2)C1 [Example 14-19, 7-cyclopropyl-4-(5-methyl-1H-indazol-4-yl)-2-(2-(2-propenoyl)-2,6-diazaspiro[3.4]octan-6-yl)-3-quinolinecarbonitrile]	< 5.30	6.89	5.77			
C=CC(=O)N1CC2(CCN(c3nc4c(c(-c5c(C)ccc6cnn(C)c56)c3C#N)CC[C@H]3C[C@@H]43)C2)C1 (single isomer, unassigned) [Example 13-137, (6a,7a)-4-(1,6-dimethyl-1H-indazol-7-yl)-2-(2-(2-propenoyl)-2,6-diazaspiro[3.4]octan-6-yl)-6,6a,7,7a-tetrahydro-5H-cyclopropa[h]quinoline-3-carbonitrile]	< 5.30		6.33	7.14		
C=CC(=O)N1CC2(CCN(c3nc4c(c(-c5ccccc5Cl)c3C#N)CCC(c3scnc3C)=C4)C2)C1 (single isomer, unassigned) [Example 23-42, (P)-4-(2-chlorophenyl)-7-(4-methyl-1,3-thiazol-5-yl)-2-(2-(2-propenoyl)-2,6-diazaspiro[3.4]octan-6-yl)-5,6-dihydro-3-quinolinecarbonitrile]		7.18			< 5.30	6.25
C=CC(=O)N1CC2(CCN(c3nc4c(c(-c5cc(O)ccc5C)c3Cl)COC(C)(C)C4)C2)C1 [Example 2-79, 1-(6-(3-chloro-4-(5-hydroxy-2-methylphenyl)-7,7-dimethyl-7,8-dihydro-5H-pyrano[4,3-b]pyridin-2-yl)-2,6-diazaspiro[3.4]octan-2-yl)-2-propen-1-one]	< 5.30		6.80	7.15		
C=CC(=O)N1CC2(CCN(c3nc4c(c(-c5cc(O)c(F)c6ccccc56)c3C#N)CC[C@@H]3C[C@H]43)C2)C1 (single isomer, unassigned) [Example 13-76]				7.40	5.49	5.93
C=CC(=O)N1CC2(CCN(c3nc4c(c(-c5c(C)ccc6cnn(C)c56)c3C#N)CCC3CC43)C2)C1 [Example 13-116, (6aR,7aS)-4-(1,6-dimethyl-1H-indazol-7-yl)-2-(2-(2-propenoyl)-2,6-diazaspiro[3.4]octan-6-yl)-6,6a,7,7a-tetrahydro-5H-cyclopropa[h]quinoline-3-carbonitrile|(6aS,7aR)-4-(1,6-dimethyl-1H-indazol-7-yl)-2-(2-(2-propenoyl)-2,6-diazaspiro[3.4]octan-6-yl)-6,6a,7,7a-tetrahydro-5H-cyclopropa[h]quinoline-3-carbonitrile]	< 5.30		6.11	7.52		
C=CC(=O)N1CC2(CCN(c3nc4c(c(-c5ccc(F)cc5F)c3C#N)CCN(c3scnc3C)C4)C2)C1 [Example 21-3, 4-(2,4-difluorophenyl)-7-(4-methyl-1,3-thiazol-5-yl)~2-(2-(2-propenoyl)-2,6-diazaspiro[3.4]octan-6-yl)-5,6,7,8-tetrahydro-1,7-naphthyridine-3~carbonitrile]	< 5.30	7.60	6.72			
C=CC(=O)N1CC2(CCN(c3nc4c(c(-c5cc(O)cnc5Cl)c3C#N)C[C@H]3C[C@@H]4C3(C)C)C2)C1 [Example 12-35, (1R,9R)-6-(2-chloro-5-hydroxy-3-pyridinyl)-10,10-dimethyl-4-(2-(2-propenoyl)-2,6-diazaspiro[3.4]octan-6-yl)-3-azatricyclo[7.1.1.0^2,7] undeca-2,4,6-triene-5-carbonitrile]	< 5.30		5.96	7.36		
C=CC(=O)N1CC2(CCN(c3nc4c(c(-c5c(C)ccc6cnn(C)c56)c3C)CCN(C3CCCN(C)C3)C4)C2)C1 [Example 18-20, 1-(6-(4-(1,6-dimethyl-1H-indazol-7-yl)-3-methyl-7-((3R)-1-methyl-3-piperidinyl)-5,6,7,8-tetrahydro-1,7-naphthyridin-2-yl)-2,6-diazaspiro[3.4]octan-2-yl)-2-propen-1-one|1-(6-(4-(1,6-dimethyl-1H-indazol-7-yl)-3-methyl-7-((3S)-1-methyl-3-piperidinyl)-5,6,7,8-tetrahydro-1,7-naphthyridin-2-yl)-2,6-diazaspiro[3.4]octan-2-yl)-2-propen-1-one]	< 4.60	6.43	6.87			
C=CC(=O)N1CC2(CCN(c3cc4c(c(-c5c(C)ccc6[nH]ncc56)c3C#N)COCC4)C2)C1 (single isomer, unassigned) [Example 2-100, (P)-8-(5-methyl-1H-indazol-4-yl)-6-(2-(2-propenoyl)-2,6-diazaspiro[3.4]octan-6-yl)-3,4-dihydro-1H-2-benzopyran-7-carbonitrile]	< 5.30		7.60	7.48		
C=CC(=O)N1CC2(CCN(c3nc4c(c(-c5cc(O)c(F)c6ccccc56)c3C#N)CC[C@@H]3C[C@H]43)C2)C1 (single isomer, unassigned) [Example 13-74]	< 5.30			7.12		< 5.30
C=CC(=O)N1CC2(CCN(c3nc4c(c(-c5cccc(C)c5C)n3)CC[C@H](c3scnc3C)C4)C2)C1 (single isomer, unassigned) [Example 22-2]	< 4.60	6.15	5.28			
C=CC(=O)N1CC2(CCN(c3nc4c(c(-c5ccccc5O)c3C#N)CCC(c3scnc3C)=C4)C2)C1 [Example 23-40, 4-(2-hydroxyphenyl)-7-(4-methyl-1,3-thiazol-5-yl)-2-(2-(2-propenoyl)-2,6-diazaspiro[3.4]octan-6-yl)-5,6-dihydro-3-quinolinecarbonitrile]	5.14	6.87	5.64			
C=CC(=O)N1CC2(CCN(c3nc4c(c(-c5c(C)ccc6[nH]ncc56)c3C)CCN(C(C)C)C4)C2)C1 (single isomer, unassigned) [Example 18-19, (P)-1-(6-(3-methyl-4-(5-methyl-1H-indazol-4-yl)-7-(2-propanyl)-5,6,7,8-tetrahydro-1,7-naphthyridin-2-yl)-2,6-diazaspiro[3.4]octan-2-yl)-2-propane-1-one]	< 4.60	6.88				7.25
C=CC(=O)N1CC2(CCN(c3nc4ccccc4c(-c4c(C)c(F)cc5[nH]ncc45)c3C#N)C2)C1 [Example 14-2, 4-(6-fluoro-5-methyl-1H-indazol-4-yl)-2-(2-(2-propenoyl)-2,6-diazaspiro[3.4]octan-6-yl)-3-quinolinecarbonitrile]	< 5.30		6.34	7.06		
C=CC(=O)N1CC2(CCN(c3nc4c(c(-c5cccc6cc(O)ccc56)c3C)CCN(C(C)C)C4)C2)C1 [Example 18-1, 1-(6-(4-(6-Hydroxy-1-naphthalenyl)-3-methyl-7-(2-propanyl)-5,6,7,8-tetrahydro-1,7-naphthyridin-2-yl)-2,6-diazaspiro[3.4]octan-2-yl)-2-propen-1-one]	< 5.30	7.43	7.64			
C=CC(=O)N1CC2(CCN(c3nc4c(c(-c5c(C)ccc6[nH]ncc56)c3C)CCN(C(C)C)C4)C2)C1 [Example 18-2, 1-(6-(3-methyl-4-(5-methyl-1H-indazol-4-yl)-7-(2-propanyl)-5,6,7,8-tetrahydro-1,7-naphthyridin-2-yl)-2,6-diazaspiro[3.4]octan-2-yl)-2-propen-1-one]	< 5.30	6.57	7.03			
